Experimental data reported in the supplement of paper PMC10307832.

Assays:
Test in all cases: relative viability (nuclei count vs DMSO), 5 days (fraction); higher = more cells survive
AZD5582 + OSI-027 = compound: C[C@@H](C(=O)N[C@@H](C1CCCCC1)C(=O)N2CCC[C@H]2C(=O)N[C@@H]3[C@@H](CC4=CC=CC=C34)OCC#CC#CCO[C@@H]5CC6=CC=CC=C6[C@@H]5NC(=O)[C@@H]7CCCN7C(=O)[C@H](C8CCCCC8)NC(=O)[C@H](C)NC)NC [AZD5582] + COc1cccc2cc(-c3nc([C@H]4CC[C@H](C(=O)O)CC4)n4ncnc(N)c34)[nH]c12 [OSI-027] (partner 0.5 µM)
Method in brief: (§1)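 Relative viability is defined as nuclei in treated wells over nuclei in vehicle wells. Duplicate plates were run and medians reported. Lung cancer cell lines in 1536-well plates were dosed by pin tool one day after seeding, with one drug or with a fixed anchor-drug dose plus five library-drug doses (not always all listed) in √10 steps, and nuclei were counted after 5 days.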

AZD5582 + Pictilisib = compound: C[C@@H](C(=O)N[C@@H](C1CCCCC1)C(=O)N2CCC[C@H]2C(=O)N[C@@H]3[C@@H](CC4=CC=CC=C34)OCC#CC#CCO[C@@H]5CC6=CC=CC=C6[C@@H]5NC(=O)[C@@H]7CCCN7C(=O)[C@H](C8CCCCC8)NC(=O)[C@H](C)NC)NC [AZD5582] + CS(=O)(=O)N1CCN(Cc2cc3nc(-c4cccc5[nH]ncc45)nc(N4CCOCC4)c3s2)CC1 [Pictilisib] (partner 1 µM)
Method in brief: as §1

Temozolomide + Lapatinib = compound: Cn1nnc2c(C(N)=O)ncn2c1=O [Temozolomide] + CS(=O)(=O)CCNCc1ccc(-c2ccc3ncnc(Nc4ccc(OCc5cccc(F)c5)c(Cl)c4)c3c2)o1 [Lapatinib] (partner 2 µM)
Method in brief: as §1

Temozolomide + Dasatinib = compound: Cn1nnc2c(C(N)=O)ncn2c1=O [Temozolomide] + Cc1nc(Nc2ncc(C(=O)Nc3c(C)cccc3Cl)s2)cc(N2CCN(CCO)CC2)n1 [Dasatinib] (partner 0.075 µM)
Method in brief: as §1

Cell Line | relative viability (AZD5582 + OSI-027; first compound 0.01581 µM) | relative viability (AZD5582 + OSI-027; first compound 0.05 µM) | relative viability (AZD5582 + Pictilisib; first compound 0.001581 µM) | relative viability (AZD5582 + Pictilisib; first compound 0.005 µM) | relative viability (AZD5582 + Pictilisib; first compound 0.01581 µM) | relative viability (AZD5582 + Pictilisib; first compound 0.05 µM) | relative viability (Temozolomide + Lapatinib; first compound 0.2 µM) | relative viability (Temozolomide + Lapatinib; first compound 0.6325 µM) | relative viability (Temozolomide + Lapatinib; first compound 2 µM) | relative viability (Temozolomide + Lapatinib; first compound 6.325 µM) | relative viability (Temozolomide + Lapatinib; first compound 20 µM) | relative viability (Temozolomide + Dasatinib; first compound 0.2 µM) | relative viability (Temozolomide + Dasatinib; first compound 0.6325 µM) | relative viability (Temozolomide + Dasatinib; first compound 2 µM) | relative viability (Temozolomide + Dasatinib; first compound 6.325 µM) | relative viability (Temozolomide + Dasatinib; first compound 20 µM) | relative viability (AZD5582 + OSI-027; first compound 0.001581 µM) | relative viability (AZD5582 + OSI-027; first compound 0.005 µM)
NCI-H596 | 0.614 | 0.334 | 0.31 | 0.348 | 0.413 | 0.191 | 1.3 | 1.11 | 1.26 | 0.929 | 1.2 | 0.601 | 0.697 | 0.614 | 0.461 | 0.564 |  | 
LU99A | 0.243 | 0.287 | 0.315 | 0.323 | 0.291 | 0.37 | 1.13 | 1.03 | 0.977 | 0.87 | 0.966 | 0.589 | 0.489 | 0.6 | 0.524 | 0.548 | 0.259 | 0.295
LCLC-97TM1 | 0.496 | 0.382 |  | 0.244 | 0.15 | 0.154 | 0.929 | 1.28 | 0.655 | 0.611 | 1.21 | 0.76 | 0.807 | 0.934 | 0.813 | 0.803 | 0.4 | 0.567
HCC-78 | 0.33 | 0.311 | 0.198 | 0.24 | 0.147 | 0.169 | 0.938 | 0.602 | 0.791 | 0.321 | 0.826 | 0.363 | 0.456 | 0.418 | 0.391 | 0.365 | 0.382 | 0.406
NCI-H358 | 0.821 | 0.777 | 0.426 | 0.308 | 0.394 | 0.308 | 0.538 | 0.572 | 0.475 | 0.439 | 0.419 | 0.13 | 0.151 | 0.17 | 0.142 | 0.135 | 0.677 | 0.962
NCI-H1563 | 0.731 | 0.679 | 0.644 | 0.642 | 0.62 | 0.729 | 0.889 | 0.89 | 0.993 | 0.859 | 1 | 0.454 | 0.481 | 0.453 | 0.366 | 0.447 | 0.688 | 0.709
SK-MES-1 | 0.566 | 0.591 | 0.391 | 0.475 | 0.4 | 0.433 | 0.478 | 0.466 | 0.463 | 0.505 | 0.458 | 0.289 | 0.34 | 0.412 | 0.374 | 0.228 | 0.599 | 0.602
NCI-H838 |  | 0.449 | 0.39 | 0.467 | 0.362 | 0.59 | 0.998 | 1.03 | 1.17 | 0.945 | 1.25 | 0.28 | 0.253 | 0.426 | 0.311 | 0.281 | 0.339 | 0.423
